Laboratory results reported in the supplement of paper PMC11451515.

Assays:
Conditions in all cases: 48 h
[1] = test system: P12-Ichikawa; assay: AUC of viability dose-response curve (% viability x log10 dose units); higher = less sensitive
In short: (§1)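 Over 48 h at 37°C, leukemia cells in 1536-well plates (500 or 1000 cells/well), adapted to each medium, received library compounds in DMSO at 11 threefold doses from 47 μM to 0.79 nM. CellTiter-Glo One luminescence, normalised per plate to DMSO and cell-free wells, was fitted by a four-parameter log-logistic function of log10 dose. The area under the curve was then integrated by trapezoidal rule, after scaling curves above full viability and removing those that failed quality control.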

[2] = test system: NOMO1; assay: as above
In short: as §1

[3] = test system: SEM cells; assay: as above
In short: as §1

[4] = test system: P12-Ichikawa; assay: cell viability relative to DMSO control; higher = less cytotoxic
In short: (§2)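 Viability was expressed as a per-plate percentage of DMSO wells, with cell-free wells as background. Leukemia cells (NOMO1 or SEM at 500 cells/well, P12-Ichikawa at 1000 cells/well) were adapted for at least four passages in each medium and seeded in 1536-well plates (5 μl). Library compounds in DMSO were pin-dosed over an 11-point threefold series from 47 μM to 0.79 nM, and CellTiter-Glo One luminescence was read after 48 h at 37°C.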

[5] = test system: NOMO1; assay: as above
In short: as §2

[6] = test system: SEM cells; assay: as above
In short: as §2

[7] = RPMI 5 mM glucose + 10% dialyzed FBS
[8] = HPLM + 10% dialyzed FBS, 0.000781 µM
[9] = HPLM + 10% dialyzed FBS, 0.00234 µM
[10] = HPLM + 10% dialyzed FBS, 0.00702 µM
[11] = HPLM + 10% dialyzed FBS, 0.0211 µM
[12] = HPLM + 10% dialyzed FBS, 0.0632 µM
[13] = HPLM + 10% dialyzed FBS, 0.19 µM
[14] = HPLM + 10% dialyzed FBS, 0.569 µM
[15] = HPLM + 10% dialyzed FBS, 1.71 µM
[16] = HPLM + 10% dialyzed FBS, 5.12 µM
[17] = HPLM + 10% dialyzed FBS, 15.4 µM
[18] = HPLM + 10% dialyzed FBS, 46.1 µM
[19] = RPMI 5 mM glucose + 10% FBS, 0.000781 µM
[20] = RPMI 5 mM glucose + 10% FBS, 0.00234 µM
[21] = RPMI 5 mM glucose + 10% FBS, 0.00702 µM
[22] = RPMI 5 mM glucose + 10% FBS, 0.0211 µM
[23] = RPMI 5 mM glucose + 10% FBS, 0.0632 µM
[24] = RPMI 5 mM glucose + 10% FBS, 0.19 µM
[25] = RPMI 5 mM glucose + 10% FBS, 0.569 µM
[26] = RPMI 5 mM glucose + 10% FBS, 1.71 µM
[27] = RPMI 5 mM glucose + 10% FBS, 5.12 µM
[28] = RPMI 5 mM glucose + 10% FBS, 15.4 µM
[29] = RPMI 5 mM glucose + 10% FBS, 46.1 µM
[30] = RPMI 5 mM glucose + 10% dialyzed FBS, 0.000781 µM
[31] = RPMI 5 mM glucose + 10% dialyzed FBS, 0.00234 µM
[32] = RPMI 5 mM glucose + 10% dialyzed FBS, 0.00702 µM
[33] = RPMI 5 mM glucose + 10% dialyzed FBS, 0.0211 µM
[34] = RPMI 5 mM glucose + 10% dialyzed FBS, 0.0632 µM
[35] = RPMI 5 mM glucose + 10% dialyzed FBS, 0.19 µM
[36] = RPMI 5 mM glucose + 10% dialyzed FBS, 0.569 µM
[37] = RPMI 5 mM glucose + 10% dialyzed FBS, 1.71 µM
[38] = RPMI 5 mM glucose + 10% dialyzed FBS, 5.12 µM
[39] = RPMI 5 mM glucose + 10% dialyzed FBS, 15.4 µM
[40] = RPMI 5 mM glucose + 10% dialyzed FBS, 46.1 µM

## CC(=O)OCC(=O)[C@@]12\N=C(C)/O[C@@H]1C[C@H]3[C@@H]4CCC/5=C/C(=O)/C=C\[C@]5(C)[C@H]4[C@@H](O)C[C@]23C
[1]; HPLM + 10% dialyzed FBS
  AUC of viability dose-response curve: 436
[1]; RPMI 5 mM glucose + 10% FBS
  AUC of viability dose-response curve: 427
[1]; [7]
  AUC of viability dose-response curve: 415
[2]; HPLM + 10% dialyzed FBS
  AUC of viability dose-response curve: 470
[2]; RPMI 5 mM glucose + 10% FBS
  AUC of viability dose-response curve: 468
[2]; [7]
  AUC of viability dose-response curve: 462
[3]; HPLM + 10% dialyzed FBS
  AUC of viability dose-response curve: 404
[3]; RPMI 5 mM glucose + 10% FBS
  AUC of viability dose-response curve: 432
[3]; [7]
  AUC of viability dose-response curve: 444
[4]; [8]
  cell viability: 103%
[4]; [9]
  cell viability: 111%
[4]; [10]
  cell viability: 108%
[4]; [11]
  cell viability: 113%
[4]; [12]
  cell viability: 103%
[4]; [13]
  cell viability: 114%
[4]; [14]
  cell viability: 108%
[4]; [15]
  cell viability: 105%
[4]; [16]
  cell viability: 80.6%
[4]; [17]
  cell viability: 73%
[4]; [18]
  cell viability: 63.9%
[4]; [19]
  cell viability: 102%
[4]; [20]
  cell viability: 123%
[4]; [21]
  cell viability: 116%
[4]; [22]
  cell viability: 114%
[4]; [23]
  cell viability: 85.1%
[4]; [24]
  cell viability: 115%
[4]; [25]
  cell viability: 115%
[4]; [26]
  cell viability: 94.1%
[4]; [27]
  cell viability: 85.5%
[4]; [28]
  cell viability: 62.8%
[4]; [29]
  cell viability: 55%
[4]; [30]
  cell viability: 93.6%
[4]; [31]
  cell viability: 102%
[4]; [32]
  cell viability: 112%
[4]; [33]
  cell viability: 107%
[4]; [34]
  cell viability: 104%
[4]; [35]
  cell viability: 111%
[4]; [36]
  cell viability: 102%
[4]; [37]
  cell viability: 86.9%
[4]; [38]
  cell viability: 67.2%
[4]; [39]
  cell viability: 57.7%
[4]; [40]
  cell viability: 49.4%
[5]; [8]
  cell viability: 107%
[5]; [9]
  cell viability: 102%
[5]; [10]
  cell viability: 109%
[5]; [11]
  cell viability: 130%
[5]; [12]
  cell viability: 133%
[5]; [13]
  cell viability: 137%
[5]; [14]
  cell viability: 122%
[5]; [15]
  cell viability: 128%
[5]; [16]
  cell viability: 105%
[5]; [17]
  cell viability: 121%
[5]; [18]
  cell viability: 86.6%
[5]; [19]
  cell viability: 94.3%
[5]; [20]
  cell viability: 106%
[5]; [21]
  cell viability: 94.6%
[5]; [22]
  cell viability: 105%
[5]; [23]
  cell viability: 108%
[5]; [24]
  cell viability: 106%
[5]; [25]
  cell viability: 107%
[5]; [26]
  cell viability: 113%
[5]; [27]
  cell viability: 107%
[5]; [28]
  cell viability: 98%
[5]; [29]
  cell viability: 99.6%
[5]; [30]
  cell viability: 94.1%
[5]; [31]
  cell viability: 96.1%
[5]; [32]
  cell viability: 102%
[5]; [33]
  cell viability: 99.2%
[5]; [34]
  cell viability: 105%
[5]; [35]
  cell viability: 117%
[5]; [36]
  cell viability: 109%
[5]; [37]
  cell viability: 113%
[5]; [38]
  cell viability: 109%
[5]; [39]
  cell viability: 104%
[5]; [40]
  cell viability: 91.8%
[6]; [8]
  cell viability: 75.3%
[6]; [9]
  cell viability: 85.5%
[6]; [10]
  cell viability: 87.8%
[6]; [11]
  cell viability: 85.1%
[6]; [12]
  cell viability: 68%
[6]; [13]
  cell viability: 97%
[6]; [14]
  cell viability: 97.8%
[6]; [15]
  cell viability: 100%
[6]; [16]
  cell viability: 92.5%
[6]; [17]
  cell viability: 90.1%
[6]; [18]
  cell viability: 24.9%
[6]; [19]
  cell viability: 86.6%
[6]; [20]
  cell viability: 103%
[6]; [21]
  cell viability: 91.5%
[6]; [22]
  cell viability: 102%
[6]; [23]
  cell viability: 66.3%
[6]; [24]
  cell viability: 109%
[6]; [25]
  cell viability: 97.9%
[6]; [26]
  cell viability: 113%
[6]; [27]
  cell viability: 86.9%
[6]; [28]
  cell viability: 86.6%
[6]; [29]
  cell viability: 18.2%
[6]; [30]
  cell viability: 101%
[6]; [31]
  cell viability: 95.2%
[6]; [32]
  cell viability: 107%
[6]; [33]
  cell viability: 106%
[6]; [34]
  cell viability: 80.7%
[6]; [35]
  cell viability: 104%
[6]; [36]
  cell viability: 105%
[6]; [37]
  cell viability: 115%
[6]; [38]
  cell viability: 86.8%
[6]; [39]
  cell viability: 79.8%
[6]; [40]
  cell viability: 19.4%
